# Assays:
# kochia [1] = assay: Test A pre-/postemergence herbicide test; assay type: in vivo, Kochia scoparia
# Method in brief: (§1)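 Planted in loam–sand blend; treated the same day preemergence by directed soil spray, while separately grown plants at one- to two-leaf stage got postemergence spray. Compared visually with untreated controls after approximately 10 days; 100 means complete control.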
# kochia [2] = assay: Test C pre-/postemergence herbicide test; assay type: in vivo, Kochia scoparia
# Method in brief: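 Test compounds, formulated in a surfactant-containing non-phytotoxic solvent blend, are applied to seeded loam/sand soil (preemergence) and to young plants at the 1- to 4-leaf stage in peat-based medium (postemergence). Plants stay 13 to 15 days under greenhouse conditions, then are scored visually relative to controls, 0 = no effect, 100 = complete control.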
# ryegrass, Italian = assay: Test A pre-/postemergence herbicide test; assay type: in vivo, Lolium multiflorum
# Method in brief: as §1
# nightshade = assay: Test C pre-/postemergence herbicide test; assay type: in vivo, Solanum ptycanthum; conditions: Preemergence
# From the text: (§2) Seeds of plant species selected from blackgrass (Alopecurus myosuroides), ryegrass, Italian (Italian ryegrass, Lolium multiflorum), wheat (winter wheat, Triticum aestivum), galium (catchweed bedstraw, Galium aparine), corn (Zea mays), crabgrass, large (large crabgrass, Digitaria sanguinalis), foxtail, giant (giant foxtail, Setaria faberii), johnsongrass (Sorghum halepense), lambsquarters (Chenopodium album), morningglory (Ipomoea coccinea), nutsedge, yellow (yellow nutsedge, Cyperus esculentus), pigweed (Amaranthus retroflexus), ragweed (common ragweed, Ambrosia elatior), soybean (Glycine max), barnyardgrass (Echinochloa crus-galli), oilseed rape (Brassica napus), waterhemp (common waterhemp, Amaranthus rudis), kochia (Kochia scoparia), oat, wild (wild oat, Avena fatua), surinam grass (Brachiaria decumbens), foxtail, green (green foxtail, Setaria viridis), goosegrass (Eleusine indica), bromegrass, downy (downy bromegrass, Bromus tectorum), nightshade (eastern black nightshade, Solanum ptycanthum), cocklebur (common cocklebur, Xanthium strumarium), cupgrass, woolly (woolly cupgrass, Eriochloa villosa), bermudagrass (Cynodon dactylon), sunflower, (common oilseed sunflower, Helianthus annuus), Russian thistle (Salsola kali) and velvetleaf (Abutilon theophrasti) were planted into a blend of loam soil and sand and treated preemergence with test chemicals formulated in a non-phytotoxic solvent mixture which included a surfactant. At the same time, plants selected from these crop and weed species and also barley (winter barley, Hordeum vulgare), […]), chickweed (common chickweed, Stellaria media), deadnettle (henbit deadnettle, Lamium amplexicaule), and canarygrass (littleseed canarygrass, Phalaris minor) were planted in pots containing Redi-Earth® planting medium (Scotts Company, 14111 Scottslawn Road, Marysville, Ohio 43041) comprising spaghnum peat moss, vermiculite, wetting agent and starter nutrients and treated with postemergence applications of test chemicals formulated in the same manner. Plants ranged in height from 2 to 18 cm (1- to 4-leaf stage) for postemergence treatments. Treated plants and controls were maintained in a greenhouse for 13 to 15 days, after which time all species were compared to controls and visually evaluated. Plant response ratings, summarized in Table C, are based on a scale of 0 to 100 where 0 is no effect and 100 is complete control. A dash (-) response means no test result.
# bermudagrass = assay: Test C pre-/postemergence herbicide test; assay type: in vivo, Cynodon dactylon; conditions: Preemergence
# From the text: as §2
# goosegrass = assay: Test C pre-/postemergence herbicide test; assay type: in vivo, Eleusine indica; conditions: Preemergence
# From the text: as §2
# cupgrass, woolly = assay: Test C pre-/postemergence herbicide test; assay type: in vivo, Eriochloa villosa; conditions: Preemergence
# From the text: as §2
# bromegrass, downy = assay: Test C pre-/postemergence herbicide test; assay type: in vivo, Bromus tectorum; conditions: Preemergence
# From the text: as §2
# foxtail, green = assay: Test C pre-/postemergence herbicide test; assay type: in vivo, Setaria viridis; conditions: Preemergence
# From the text: as §2
# surinam grass = assay: Test C pre-/postemergence herbicide test; assay type: in vivo, Brachiaria decumbens; conditions: Preemergence
# From the text: as §2
# sunflower = assay: Test C pre-/postemergence herbicide test; assay type: in vivo, Helianthus annuus; conditions: Preemergence, 62 g ai/ha; scale 0 to 100
# From the text: as §2
# cocklebur = assay: Test C pre-/postemergence herbicide test; assay type: in vivo, Xanthium strumarium; conditions: Preemergence, scale 0 to 100 (0 no effect, 100 complete control)
# From the text: as §2
# [3] = Postemergence, 125 g ai/ha, visual rating on 0 to 100 scale (0 no effect, 100 complete control), approx. 10 days
# [4] = Postemergence, 500 g ai/ha, 0 to 100 scale (0 no effect, 100 complete control)
# [5] = Preemergence, 125 g ai/ha, 0 to 100 scale where 0 is no effect and 100 is complete control
# [6] = Preemergence, 500 g ai/ha, visual rating on 0 to 100 scale (0 no effect, 100 complete control)
# [7] = Postemergence, 31 g ai/ha, scale 0 to 100 (0 no effect, 100 complete control)
# [8] = Postemergence, 62 g ai/ha, scale 0 (no effect) to 100 (complete control)
# [9] = Postemergence, 125 g ai/ha, scale 0 to 100 (0 no effect, 100 complete control)
# [10] = Postemergence, 250 g ai/ha, scale 0 to 100 (0 no effect, 100 complete control)
# [11] = 125 g ai/ha, scale 0 to 100 (0 no effect, 100 complete control)
# [12] = 31 g ai/ha, scale 0 to 100 (0 no effect, 100 complete control)
# [13] = 250 g ai/ha, scale 0 to 100 (0 no effect, 100 complete control)
# [14] = preemergence, 500 g ai/ha, 0 to 100 scale, 0 is no effect and 100 is complete control
smiles,measurement,setting,value
CN1CC(c2ccc(F)c(F)c2)C(C(=O)Nc2ccccc2F)C1=O (stereo not shown) [Compound 302],"Plant response rating, Kochia",kochia [1]; [3],10
same,"Plant response rating, Kochia",kochia [1]; [4],60
same,"Plant response rating, Kochia",kochia [1]; [5],50
same,Kochia plant response rating,kochia [1]; [6],70
same,"Plant response rating, Kochia",kochia [2]; [7],0
same,"Plant response rating, Kochia",kochia [2]; [8],0
same,"Plant response rating, Kochia",kochia [2]; [9],0
same,"Plant response rating, Kochia",kochia [2]; [10],60
same,"Plant response rating, Ryegrass, Italian","ryegrass, Italian; [3]",0
same,"Plant response rating, Ryegrass, Italian","ryegrass, Italian; [4]",60
same,"Plant response rating, Ryegrass, Italian","ryegrass, Italian; [5]",0
same,"Ryegrass, Italian plant response rating","ryegrass, Italian; [6]",60
O=C1NCC(c2cccc(Br)c2)C1C(=O)Nc1cccc(F)c1F (stereo not shown) [Compound 309],"Plant response rating, Kochia",kochia [1]; [3],0
same,"Plant response rating, Kochia",kochia [1]; [4],0
same,"Plant response rating, Kochia",kochia [1]; [5],0
same,Kochia plant response rating,kochia [1]; [6],0
same,"Plant response rating, Kochia",kochia [2]; [7],5
same,"Plant response rating, Kochia",kochia [2]; [8],5
same,"Plant response rating, Kochia",kochia [2]; [10],75
same,"Plant response rating, Ryegrass, Italian","ryegrass, Italian; [3]",10
same,"Plant response rating, Ryegrass, Italian","ryegrass, Italian; [4]",30
same,"Plant response rating, Ryegrass, Italian","ryegrass, Italian; [5]",0
same,"Ryegrass, Italian plant response rating","ryegrass, Italian; [6]",20
O=C1NCC(c2cc(F)c(F)c(F)c2)C1C(=O)Nc1ccccc1C(F)(F)F (racemic) [Compound 33],"Plant response rating, Nightshade","nightshade; 62 g ai/ha, scale 0 to 100",0
same,"Plant response rating, Nightshade",nightshade; [11],0
same,Bermudagrass plant response rating,bermudagrass; [12],0
same,"Plant response rating, Bermudagrass","bermudagrass; 62 g ai/ha, scale 0 to 100",0
same,"Plant response rating, Bermudagrass",bermudagrass; [11],70
same,"Plant response rating, Bermudagrass",bermudagrass; [13],98
same,"Plant response rating, Kochia","kochia [2]; Preemergence, 62 g ai/ha, scale 0 to 100",0
same,"Plant response rating, Kochia","kochia [2]; Preemergence, 125 g ai/ha, scale 0 to 100 (0 no effect, 100 complete control)",0
same,Goosegrass plant response rating,goosegrass; [12],5
same,"Plant response rating, Goosegrass","goosegrass; 62 g ai/ha, scale 0 to 100",5
same,"Plant response rating, Goosegrass",goosegrass; [11],40
same,"Cupgrass, Woolly plant response rating","cupgrass, woolly; [12]",60
same,"Plant response rating, Cupgrass, Woolly","cupgrass, woolly; 62 g ai/ha, scale 0 to 100",85
same,"Plant response rating, Cupgrass, Woolly","cupgrass, woolly; [11]",90
same,"Plant response rating, Cupgrass, Woolly","cupgrass, woolly; [13]",90
same,"Bromegrass, Downy plant response rating","bromegrass, downy; [12]",0
same,"Plant response rating, Bromegrass, Downy","bromegrass, downy; 62 g ai/ha, scale 0 to 100",0
same,"Plant response rating, Bromegrass, Downy","bromegrass, downy; [11]",0
same,"Plant response rating, Bromegrass, Downy","bromegrass, downy; [13]",55
same,"Foxtail, Green plant response rating","foxtail, green; [12]",95
same,"Plant response rating, Foxtail, Green","foxtail, green; 62 g ai/ha, scale 0 to 100",98
same,"Plant response rating, Foxtail, Green","foxtail, green; [11]",100
same,"Plant response rating, Foxtail, Green","foxtail, green; [13]",100
same,"Plant response rating, Surinam Grass","surinam grass; 62 g ai/ha, scale 0 to 100",80
same,"Plant response rating, Surinam Grass",surinam grass; [11],95
same,Plant response rating Sunflower,sunflower,10
same,Cocklebur plant response rating,cocklebur; 31 g ai/ha,0
same,"Plant response rating, Cocklebur",cocklebur; 125 g ai/ha,10
same,"Plant response rating, Cocklebur",cocklebur; 250 g ai/ha,10
O=C1NCC(c2cc(F)cc(F)c2)C1C(=O)Nc1cccc(F)c1F (racemic) [Compound 279],"Plant response rating, Kochia","kochia [1]; Postemergence, 125 g ai/ha, 0 to 100 scale, 0 is no effect, 100 is complete control",0
same,"Plant response rating, Kochia",kochia [1]; [4],40
same,"Plant response rating, Kochia",kochia [1]; [5],40
same,"Plant response rating, Kochia",kochia [1]; [14],80
same,"Plant response rating, Kochia",kochia [2]; [7],0
same,"Plant response rating, Kochia",kochia [2]; [8],30
same,"Plant response rating, Kochia",kochia [2]; [9],85
same,"Plant response rating, Kochia",kochia [2]; [10],35
same,"Plant response rating, Ryegrass, Italian","ryegrass, Italian; [3]",0
same,"Plant response rating, Ryegrass, Italian","ryegrass, Italian; [4]",0
same,"Plant response rating, Ryegrass, Italian","ryegrass, Italian; [5]",0
same,"Plant response rating, Ryegrass, Italian","ryegrass, Italian; [14]",60
